From patent US4621094A, “Anti-histaminic pyridyl compounds” (priority 1984, dated 1986) come the findings set out here.

In this test the target is T1, H1 histamine receptor (Cavia porcellus, UniProt P31389).
T1 construct: The longitudinal muscle was isolated from the intact ileum of guinea pigs; from tissue; host or cells: ileum longitudinal muscle, guinea pig (Hartley, male 250-400 g)
Nature of the test: Antihistaminic activity: antagonism of histamine concentration-response curves in isolated guinea pig ileum longitudinal muscle (Schild plot). It is filed as cell-based, guinea pigs. The following applies: negative log of molar antagonist concentration shifting the control histamine concentration-response curve 2X to the right; tissue incubated one hour with test compound; organ bath, 300 mg tension; read-out: pA2 (converted). The procedure:
The longitudinal muscle was isolated from the intact ileum of guinea pigs (Hartley, male 250-400 g) and placed in an organ bath under 300 mg tension. After one hour of equilibration, cumulative concentration-response curves (Van Rossum, J. M., Arch. Int. Pharmacodyn. Ther. 143, 299-330, 1963) to histamine were obtained. Following washing, the tissues were incubated for one hour with the test compound and then a second histamine concentration-response curve was run. Shifts to the right of the agonist concentration-response curve produced by the antagonists were used to construct Schild plots (Arunlakshana, O. And Schild, H. O., Br. J. Pharmacol: 14, 48-58, 1959 ). Regression of Log (dr-1) on Log [B], where dr is an equiactive response in the presence and absence of antagonist and [B] is the molar concentration of antagonist, allowed an estimate of pA2, i.e. the negative log of the concentration of antagonist which shifts the control histamine concentration-response curve 2X to the right.

Each structure is given as a SMILES string.

T1 sequence (P31389 whole entry): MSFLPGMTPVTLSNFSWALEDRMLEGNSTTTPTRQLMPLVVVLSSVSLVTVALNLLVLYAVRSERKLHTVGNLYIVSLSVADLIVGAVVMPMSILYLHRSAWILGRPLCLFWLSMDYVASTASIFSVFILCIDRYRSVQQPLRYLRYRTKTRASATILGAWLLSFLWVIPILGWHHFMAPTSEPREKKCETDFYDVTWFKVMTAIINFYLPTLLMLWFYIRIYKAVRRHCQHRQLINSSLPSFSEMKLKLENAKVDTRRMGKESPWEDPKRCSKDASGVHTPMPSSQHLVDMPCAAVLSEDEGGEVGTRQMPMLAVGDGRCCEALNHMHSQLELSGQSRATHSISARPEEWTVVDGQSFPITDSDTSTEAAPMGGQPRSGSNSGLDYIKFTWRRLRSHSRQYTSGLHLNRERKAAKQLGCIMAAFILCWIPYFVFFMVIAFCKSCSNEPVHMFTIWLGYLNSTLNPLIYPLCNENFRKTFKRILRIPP

Consider `CN(C)CCC(c1ccc(Cl)cc1)c1cccc(/C=C/C(=O)O)n1` (stereo not shown) [(E)-6-(1-(4-chlorophenyl)-3-dimethylaminopropyl)-2-pyridyl acrylic acid], for which the Kb was 2000 nM.
